This is an account of results in US20230118688A1, “1H-PYRAZOLO[4,3-d]PYRIMIDINE COMPOUNDS AS TOLL-LIKE RECEPTOR 7 (TLR7) AGONISTS” (BRISTOL-MYERS SQUIBB COMPANY, priority 2020, published 2023).

Like-named read-outs stand apart in the source and are kept apart here. Where only a bound is given, the exact number is not on record here.

What is called EC50 is the concentration needed to bring the measured effect to its halfway point.

For one test, the target named is T1, human TLR7 (Homo sapiens, UniProt Q9NYK1).
T1 construct: host or cells: HEK-Blue TLR7 cells (engineered human embryonic kidney cells)
T1 sequence (Q9NYK1 27-1049): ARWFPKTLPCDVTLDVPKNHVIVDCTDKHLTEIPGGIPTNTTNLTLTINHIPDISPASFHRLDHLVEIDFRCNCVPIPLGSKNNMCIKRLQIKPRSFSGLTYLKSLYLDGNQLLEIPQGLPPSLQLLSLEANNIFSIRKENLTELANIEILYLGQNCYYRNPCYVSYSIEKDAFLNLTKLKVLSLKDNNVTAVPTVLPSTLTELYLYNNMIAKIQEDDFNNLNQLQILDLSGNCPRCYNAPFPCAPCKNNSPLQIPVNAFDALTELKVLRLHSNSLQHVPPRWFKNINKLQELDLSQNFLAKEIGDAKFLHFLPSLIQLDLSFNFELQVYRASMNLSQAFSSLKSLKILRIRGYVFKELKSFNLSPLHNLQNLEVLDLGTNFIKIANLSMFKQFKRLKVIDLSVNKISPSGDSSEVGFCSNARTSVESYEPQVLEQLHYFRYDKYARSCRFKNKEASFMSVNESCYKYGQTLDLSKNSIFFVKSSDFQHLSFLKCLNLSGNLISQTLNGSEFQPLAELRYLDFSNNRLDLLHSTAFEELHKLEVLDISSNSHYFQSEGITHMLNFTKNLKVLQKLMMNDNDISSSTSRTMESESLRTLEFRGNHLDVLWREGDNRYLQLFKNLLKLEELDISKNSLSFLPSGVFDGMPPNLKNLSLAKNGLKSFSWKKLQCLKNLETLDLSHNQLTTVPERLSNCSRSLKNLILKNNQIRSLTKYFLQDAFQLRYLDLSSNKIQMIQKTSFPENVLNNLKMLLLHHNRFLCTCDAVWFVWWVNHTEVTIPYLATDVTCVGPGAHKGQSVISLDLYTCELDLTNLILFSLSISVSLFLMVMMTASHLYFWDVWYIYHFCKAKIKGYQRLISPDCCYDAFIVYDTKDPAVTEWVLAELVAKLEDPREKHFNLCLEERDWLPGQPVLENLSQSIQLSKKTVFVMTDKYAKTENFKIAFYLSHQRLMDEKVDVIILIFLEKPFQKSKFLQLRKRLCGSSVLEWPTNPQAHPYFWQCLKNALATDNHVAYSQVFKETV
Kind of test: Human TLR7 agonist activity reporter assay (HEK-Blue TLR7 cells, SEAP reporter). As to conditions: 18 h treatment. It is filed as cell-based. The procedure: This procedure describes a method for assaying human TLR7 (hTLR7) agonist activity of the compounds disclosed in this specification.
HEK-Blue™ TLR7 cells were added to each well of a 384-well tissue-culture plate (15,000 cells per well) and incubated 16-18 h at 37° C., 5% CO2. Compounds (100 nl) were dispensed into wells containing the HEK-Blue™ TLR cells and the treated cells were incubated at 37° C., 5% CO2. After 18 h treatment ten microliters of freshly-prepared Quanti-Blue™ reagent (Invivogen) was added to each well, incubated for 30 min (37° C., 5% CO2) and SEAP levels measured using an Envision plate reader (OD=620 nm). The half maximal effective concentration values (EC50; compound concentration which induced a response halfway between the assay baseline and maximum) were calculated.
On the technique in general: A reporter such as luciferase makes a cellular process visible.

The subject of a further test is CD69. Kind of test: Induction of CD69 in human whole blood. It is filed as cell-based. As to conditions: 17 h, CD69 surface staining, 100% set to 1 uM resiquimod. The procedure:
The induction of Type I interferon (IFN) MX-1 genes and the B-cell activation marker CD69 are downstream events that occur upon activation of the TLR7 pathway. The following is a human whole blood assay that measures their induction in response to a TLR7 agonist.
Heparinized human whole blood was harvested from human subjects and treated with test TLR7 agonist compounds at 1 mM. The blood was diluted with RPMI 1640 media and Echo was used to predot 10 nL per well giving a final concentration of 1 uM (10 nL in 10 uL of blood). After mixing on a shaker for 30 sec, the plates were covered and placed in a 37° C. chamber for o/n=17 hrs. Fixing/lysis buffer was prepared (5×->1× in H2O, warm at 37° C.; Cat #BD 558049) and kept the perm buffer (on ice) for later use.
For surface markers staining (CD69): prepared surface Abs: 0.045 ul hCD14-FITC (ThermoFisher Cat #MHCD1401)+0.6 ul hCD19-ef450 (ThermoFisher Cat #48-0198-42)+1.5 ul hCD69-PE (cat #BD555531)+0.855 ul FACS buffer. Added 3 ul/well, spin1000 rpm for 1 min and mixed on shaker for 30 sec, put on ice for 30 mins. Stop stimulation after 30 minutes with 70 uL of prewarmed 1× fix/lysis buffer and use Feliex mate to resuspend (15 times, change tips for each plate) and incubate at 37C for 10 minutes.
Centrifuge at 2000 rpm for 5 minutes aspirate with HCS plate washer, mix on shaker for 30 sec and then wash with 70 uL in dPBS and pelleted 2×s (2000 rpm for 5 min) and 50 ul wash in FACS buffer pelleted 1×s(2000 rpm for 5 min). Mix on shaker for 30 sec. For Intracellular markers staining (MX-1): Add 50 ul of BD Perm buffer III and mix on shaker for 30 sec. Incubate on ice for 30 minutes (in the dark). Wash with 50 uL of FACS buffer 2× (spin @2300 rpm×5 min after perm) followed by mixing on shaker for 30 sec. Resuspended in 20 ul of FACS buffer containing MX1 antibody ( ) (4812)-Alexa 647: Novus Biologicals #NBP2-43704AF647) 20 ul FACS bf+0.8 ul hlgG+0.04 ul MX-1. Spin 1000 rpm for 1 min, mix on shaker for 30se and the samples were incubated at RT in the dark for 45 minutes followed by washing 2×FACS buffer (spin @2300 rpm×5 min after perm). Resuspend 20 ul (35 uL total per well) of FACS buffer and cover with foil and place in 4° C. to read the following day. Plates were read on iQuePlus. The results were loaded into toolset and IC50 curves are generated in curve master. The y-axis 100% is set to 1 uM of resiquimod.

The mark [1] stands for this setting: average where assay repeated, Table A1, read-out: hTLR7 Agonism EC50.
Where [2] appears, read: average where assay repeated, Table A1, read-out: hWB CD69 EC50.
[3] abbreviates: Table A2, read-out: hTLR7 Agonism EC50.
The mark [4] stands for this setting: Table A2, read-out: hWB CD69 EC50.

Regarding `CCCCNc1nc(N)nc2cnn(Cc3cc(COC4COC4)ccc3OC)c12` [Compound 141, N7-butyl-1-({2-methoxy-5-[(oxetan-3-yloxy)me-thyl]phenyl}methyl)-1H-pyrazolo[4,3-d]pyrimidine-5,7-diamine], the EC50 on human TLR7 (setting [1]) was determined as 498 nM; in the test on CD69 (setting [2]) it was 831 nM.

Regarding “4-[3-({5-amino-7-[({spiro- [2.3]hexan-5-yl}methyl)- amino]-1H-pyrazolo[4,3- d]pyrimidin-1-yl}methyl)-4- methoxybenzoyl]piperazin- 2-one [Compound 153]”, the EC50 on human TLR7 (setting [1]) was 2250 nM; in the test on CD69 (setting [2]), 485 nM.

Regarding `CCCCNc1nc(N)nc2cnn(Cc3cc(CNC4CC(O)C4)ccc3OC)c12` (centres unmarked) [Compound 116, (1r,3r)-3-{[(3-{[5-amino-7-(butylamino)-1H-pyrazolo-[4,3-d]pyrimidin-1-yl]methyl}-4-methoxyphenyl)-methyl]amino}cyclobutan-1-ol], the EC50 worked out at 335 nM on human TLR7 (setting [1]) and 205 nM with CD69 (setting [2]).

Take `CCCCNc1nc(N)nc2cnn(Cc3cc(CN4CC(N(C)C)C4)ccc3OC)c12` [Compound 137, N7-butyl-1-[(5-{[3-(dime-thylamino)azetidin-1-yl]-methyl}-2-methoxyphenyl)methyl]-1H-pyrazolo-[4,3-d]pyrimidine-5,7-diamine]: the EC50 on human TLR7 (setting [1]) came to 114 nM; in the test with CD69 (setting [2]), 28.1 nM.

`CCC[C@@H](CCO)Nc1nc(N)nc2cnn(Cc3cc(CNCCS(C)(=O)=O)c(F)cc3OC)c12` [Compound 173, (3S)-3-({5-amino-1-[(4-fluoro-5-{[(2-methanesulfonylethyl)amino]methyl}-2-methoxyphenyl)methyl]-1H-pyrazolo[4,3-d]pyrimidin-7-yl}amino)hexan-1-ol]: the values for the EC50 at human TLR7 (setting [3]) and in the test on CD69 (setting [4]) were 40 nM and 23.2 nM, respectively.

In the case of `CCCCNc1nc(N)nc2cnn(Cc3cc(CN4CC5CC4CN5)ccc3OC)c12` (centres unmarked) [Compound 118, N7-butyl-1-{[5-({2,5-diaza-bicyclo[2.2.1]heptan-2-yl}methyl)-2-methoxy-phenyl]methyl}-1H-pyrazolo[4,3-d]pyrimidine-5,7-diamine], the values for the EC50 on human TLR7 (setting [1]) and in the test on CD69 (setting [2]) were 423 nM and 335 nM, respectively.

Take `CCC[C@@H](CCO)Nc1nc(N)nc2cnn(Cc3nc(CO)ccc3OC)c12` [Compound 174, (3S)-3-[(5-amino-1-{[6-(hydroxyl-methyl)-3-methoxypyridin-2-yl]methyl}-1H-pyrazolo[4,3-d]pyrimidin-7-yl)amino]hexan-1-ol]: the results for the EC50 at human TLR7 (setting [3]) and in the test on CD69 (setting [4]) were 96.1 nM and 41.4 nM, respectively.

Regarding `CCC[C@@H](CCO)Nc1nc(N)nc2cnn(Cc3cc(CN4CCN(C)CC4)ccc3OC)c12` [Compound 157, (S)-3-((5-amino-1-(2-methoxy-5-((4-methylpiperazin-1-yl)methyl)benzyl)-1H-pyrazolo[4,3-d]pyrimidin-7-yl)amino)hexan-1-ol], the EC50 is 22.5 nM at human TLR7 (setting [1]) and 13.2 nM in the test on CD69 (setting [2]).

With `CCCCNc1nc(N)nc2cnn(Cc3cc(COC)ccc3OC)c12` [Compound 139, N7-butyl-1-{[2-methoxy-5-(methoxymethyl)phenyl]-methyl}-1H-pyrazolo[4,3-d]pyrimidine-5,7-diamine], the results for the EC50 on human TLR7 (setting [1]) and in the test on CD69 (setting [2]) were 331 nM and 894 nM, respectively.

For `CCC[C@@H](CCO)Nc1nc(N)nc2c(C)nn(Cc3cc(CN4CCNCC4)ccc3OC)c12` [Compound 161, (3S)-3-{[5-amino-1-({2-methoxy-5-[(piperazin-1-yl)methyl]phenyl}methyl)-3-methyl-1H-pyrazolo[4,3-d]pyrimidin-7-yl]amino}hexan-1-ol], the EC50 on human TLR7 (setting [1]) came out at 340 nM; with CD69 (setting [2]), 132 nM.

For the compound `CCCCNc1nc(N)nc2cnn(Cc3cc(CN4CC5COCC5C4)ccc3OC)c12` (centres unmarked) [Compound 123, N7-butyl-1-{[5-({hexa-hydro-1H-furo[3,4-c]pyrrol-5-yl}methyl)-2-methoxyphenyl]methyl}-1H-pyrazolo[4,3-d] pyrimidine-5,7-diamine], the EC50 at human TLR7 (setting [1]) amounted to 158 nM; in the test on CD69 (setting [2]), 89.8 nM.

Take `CCCCNc1nc(N)nc2cnn(Cc3cc(CN)ccc3OC)c12` [Compound 114, 1-{[5-(aminomethyl)-2-methoxyphenyl]methyl}-N7-butyl-1H-pyrazolo[4,3-d]pyrimidine-5,7-diamine]: the concentration giving a half-maximal response (EC50) came to 234 nM at human TLR7 (setting [1]) and 6.7 nM in the test with CD69 (setting [2]).

For `CCCCNc1nc(N)nc2cnn(Cc3cc(CN4CCN(C(=O)C5CCC5)CC4)ccc3OC)c12` [Compound 138, N7-butyl-1-({5-[(4-cyclo-butanecarbonylpiperazin-1-yl)methyl]-2-methoxy-phenyl}methyl)-1H-pyrazolo-[4,3-d]pyrimidine-5,7-diamine], the EC50 is 2070 nM on human TLR7 (setting [1]) and ≥ 1000 nM in the test on CD69 (setting [2]).

With `CCC[C@@H](CCO)Nc1nc(N)nc2cnn(Cc3cc(CN4C[C@H]5C[C@@H]4CN5CCO)c(F)cc3OC)c12` [Compound 175, (3S)-3-({5-amino-1-[(4-fluoro-5-{[(1R,4R)-5-(2-hydroxyethyl)-2,5-diazabicyclo[2.2.1]heptan-2-yl]methyl}-2-methoxyphenyl)-methyl]-1H-pyrazolo[4,3-d]pyrimidin-7-yl}amino)hexan-1-ol], the EC50 at human TLR7 (setting [3]) was 204 nM; in the test on CD69 (setting [4]), 77 nM.

In the case of `CCC[C@@H](CCO)Nc1nc(N)nc2cnn(Cc3cc(CN4CCN(C)CC4)ncc3OC)c12` [Compound 177, (3S)-3-{[5-amino-1-({5-methoxy-2-[(4-methylpiperazin-1-yl)methyl]-pyridin-4-yl}methyl)-1H-pyrazolo[4,3-d]pyrimidin-7-yl]amino}hexan-1-ol], the figures for the EC50 at human TLR7 (setting [3]) and in the test on CD69 (setting [4]) were 750 nM and 34.5 nM, respectively.

As to `CCC[C@@H](CCO)Nc1nc(N)nc2cnn(Cc3cc(CNCCO)c(F)cc3OC)c12` [Compound 172, (3S)-3-({5-amino-1-[(4-fluoro-5-{[(2-hydroxyethyl)amino]methyl}-2-methoxyphenyl)methyl]-1H-pyrazolo[4,3-d]pyrimidin-7-yl}amino)hexan-1-ol], the EC50 was 167 nM on human TLR7 (setting [3]) and 29.8 nM in the test on CD69 (setting [4]).
